Laboratory results from patent US11485744B2, “High penetration prodrug compositions of antimicrobials and antimicrobial-related compounds” (priority 2009, dated 2022).

Assays:
[1] = tested on: Trichophyton mentagrophytes; assay: Antifungal MIC in vitro; format: cell-based
Aspergillus giganteus = assay: Antifungal MIC in vitro; format: cell-based
Microsporum canis = assay: Antifungal MIC in vitro; format: cell-based
[2] = tested on: methicillin-resistant Staphylococcus aureus (MRSA); assay: MIC against MRSA; format: cell-based; conditions: Staphylococcus aureus, MRSA; Table 6a; read-out: MIC
[3] = tested on: Penicillium carylophilium; assay: Antifungal MIC in vitro; format: cell-based
[4] = Clinical cure of cow mastitis, topical treatment; format: in vivo, lactating dairy cows; conditions: cows, 500 mg in 10 ml pH 7.4 phosphate buffer sprayed on skin of udder twice per day
Method: (§1) 90 lactating dairy cows were recruited. Bacteriological cure was considered to have been achieved if the samples taken from the affected quarter on day 17 and day 22 were free of the bacterial species isolated in the pretreatment sample. Clinical cure was defined as the disappearance of clinical signs of disease which were observed on day 1 before treatment, in other words by the return to normal feed intake, rectal temperature<39.0° C., good general condition, absence of udder edema, normal milk appearance, and normal milk yield.

Fusarium aquaductum = assay: Antifungal MIC in vitro; format: cell-based
Aspergillus niger = assay: Antifungal MIC in vitro; format: cell-based
Aspergillus tereus = assay: Antifungal MIC in vitro; format: cell-based
[5] = In vitro penetration across isolated human skin in modified Franz cells; conditions: for In vitro Penetration Rate (apparent flux), HPPs: pH 7.4
Fusarium oxisporum = assay: Antifungal MIC in vitro; format: cell-based
Staphylococcus aureus = assay: Bacteriological cure of cow mastitis, topical treatment; format: in vivo; conditions: cows, day 22, topical 500 mg twice per day
Method: as §1

Enterobacteriaceae = assay: as above; format: in vivo; conditions: cows, day 22, topical 500 mg twice per day
Method: as §1

[6] = tested on: Coagulase-negative staphylococci; assay: as above; format: in vivo; conditions: cows, day 22, topical 500 mg twice per day
Method: as §1

E. coli = assay: as above; format: in vivo; conditions: cows, day 22, topical 500 mg twice per day
Method: as §1

Streptococcus uberis = assay: as above; format: in vivo; conditions: cows, day 22, topical 500 mg twice per day
Method: as §1

Aspergillus nidulans = assay: Antifungal MIC in vitro; format: cell-based
Candida albicans = assay: Antifungal MIC in vitro; format: cell-based
[7] = Conversion of HPPs to parent drugs in human plasma (half life); format: in vitro ADME; conditions: human, plasma
B. fragilis = assay: MIC against B. fragilis; format: cell-based; conditions: Bacteroides fragilis; Table 6b; combinations antibiotic/inhibitor
K. pneumonlae = assay: MIC against K. pneumonlae; format: cell-based; conditions: Table 6b; combinations antibiotic/inhibitor
E. cloacae = assay: MIC against E. cloacae; format: cell-based; conditions: Enterobacter cloacae; Table 6b; combinations antibiotic/inhibitor

| SMILES | Clinical Cure Rate, Day 3 [4] [%] | Clinical Cure Rate, Day 8 [4] [%] | Clinical Cure Rate, Day 15 [4] [%] | Clinical Cure Rate, Day 22 [4] [%] | Bacteriological cure rate, Staphylococcus aureus (Staphylococcus aureus) [%] | Bacteriological cure, No. cured, Staphylococcus aureus (Staphylococcus aureus) | Bacteriological cure rate, Enterobacteriaceae (Enterobacteriaceae) [%] | Bacteriological cure, No. cured, Enterobacteriaceae (Enterobacteriaceae) | Bacteriological cure rate, Coagulase-negative staphylococci [6] [%] | Bacteriological cure, No. cured, Coagulase-negative staphylococci [6] | Bacteriological cure rate, E. coli (E. coli) [%] | Bacteriological cure, No. cured, E. coli (E. coli) | Bacteriological cure rate, Streptococcus uberis (Streptococcus uberis) [%] | Bacteriological cure, No. cured, Streptococcus uberis (Streptococcus uberis) | MIC (B. fragilis) [µg/mL] | MIC (K. pneumonlae) [µg/mL] | MIC (E. cloacae) [µg/mL] | further results |
| --- | --- | --- | --- | --- | --- | --- | --- | --- | --- | --- | --- | --- | --- | --- | --- | --- | --- | --- |
| CCN(CC)CCOC(=O)C1=CCSC2C(NC(=O)C(=NOC)c3csc(NC(C)=O)n3)C(=O)N12.Cl (stereo not drawn) [ceftizoxime-DEE, 7-[[(2-acetylamino-4-thiazolyl)(methoxyimino)acetyl]amino]-8-oxo-5-thia-1-azabicyclo[4.2.0]oct-2-ene-2-carboxylic acid 2-diethylaminoethyl ester hydrochloride] | 53 | 93 | 99 | 100 | 83 | 5 | 83.3 | 5 | 87.5 | 7 | 87.5 | 7 | 82 | 9 | – | – | – | MIC ([1]; Trichophyton mentagrophytes, read-out: Minimum inhibitory concentration, Trichophyton mentagrophytes): 9 µg/mL; MIC (Aspergillus giganteus; Aspergillus giganteus, read-out: Minimum inhibitory concentration, Aspergillus giganteus): 5 µg/mL; MIC (Microsporum canis; Microsporum canis, read-out: Minimum inhibitory concentration, Microsporum canis): 2 µg/mL; MIC [2]: 0.5 µg/mL; MIC ([3]; Penicillium, read-out: Minimum inhibitory concentration, Penicillium carylophilium): 3 µg/mL; MIC (Fusarium aquaductum; Fusarium, read-out: Minimum inhibitory concentration, Fusarium aquaductum): 3 µg/mL; MIC (Aspergillus niger; Aspergillus niger, read-out: Minimum inhibitory concentration, Aspergillus niger): 4 µg/mL; MIC (Aspergillus tereus; Aspergillus, read-out: Minimum inhibitory concentration, Aspergillus tereus): 4 µg/mL; In vitro Penetration Rate (apparent flux), HPPs ([5]; human, 10 %): 0.62 ± 0.05 mg/cm^2/h; MIC (Fusarium oxisporum; Fusarium, read-out: Minimum inhibitory concentration, Fusarium oxisporum): 5 µg/mL; MIC (Aspergillus nidulans; Aspergillus nidulans, read-out: Minimum inhibitory concentration, Aspergillus nidulans): 4 µg/mL; MIC (Candida albicans; Candida albicans, read-out: Minimum inhibitory concentration, Candida albicans): 8 µg/mL; half-life at 9.1 mg/mL ([7]; pH 7.4): 11 min |
| CO/N=C(\C(=O)N[C@@H]1C(=O)N2C(C(=O)O)=C(CSc3nc(=O)c(=O)[nH]n3C)CS[C@H]12)c1csc(N)n1 [Ceftriaxone] | – | – | – | – | – | – | – | – | – | – | – | – | – | – | 8 | 0.5 | 1 | – |
| CCN(CC)CCOC(=O)C1N2C(=O)C(NC(=O)COc3ccccc3)C2SC1(C)C.Cl (stereo not drawn) [penicillin V-DEE, 6-phenoxyacetacetamidopenicillanic acid 2-diethylaminoethyl ester hydrochloride] | 50 | 90 | 93 | 97 | 67 | 4 | 85.7 | 6 | 78 | 7 | 87.5 | 7 | 80 | 8 | – | – | – | Minimum inhibitory concentration, Trichophyton mentagrophytes [1]: 12 µg/mL; Minimum inhibitory concentration, Aspergillus giganteus (Aspergillus giganteus): 3 µg/mL; Minimum inhibitory concentration, Microsporum canis (Microsporum canis): 2 µg/mL; Minimum inhibitory concentration, Penicillium carylophilium [3]: 2 µg/mL; Minimum inhibitory concentration, Fusarium aquaductum (Fusarium aquaductum): 2 µg/mL; Minimum inhibitory concentration, Aspergillus niger (Aspergillus niger): 3 µg/mL; Minimum inhibitory concentration, Aspergillus tereus (Aspergillus tereus): 2 µg/mL; In vitro Penetration Rate (apparent flux), HPPs [5]: 0.72 ± 0.06 mg/cm^2/h; Minimum inhibitory concentration, Fusarium oxisporum (Fusarium oxisporum): 3 µg/mL; Minimum inhibitory concentration, Aspergillus nidulans (Aspergillus nidulans): 3 µg/mL; Minimum inhibitory concentration, Candida albicans (Candida albicans): 7 µg/mL; Half life of HPPs in plasma [7]: 8 ± 1 min |
| CC1(C)S[C@@H]2[C@H](NC(=O)[C@H](N)c3ccccc3)C(=O)N2[C@H]1C(=O)O [Ampicillin] | – | – | – | – | – | – | – | – | – | – | – | – | – | – | 68 | 0.3 | 5 | In vitro Penetration Rate (apparent flux), Parent compounds ([5]; Table 1a, isolated human skin, Franz cells, 10% in 0.2 M phosphate buffer pH 7.4, n=5): <0.015 mg/cm^2/h |
